Results taken from US10584120B1, “Benzimidazole compounds and use thereof for treating Alzheimer's Disease or Huntington's Disease” (National Health Research Institutes, priority 2018, dated 2020).

Tests used:
[1] = in vivo; conditions: APP/PS1, mouse, po
[2] = system: Aβ deposits in brain tissues of APP/PS1 mice; test: In vivo activity in transgenic APP/PS1 mouse model; conditions: 4-month-old APP/PS1 mice, orally administered for 3.5 months

Row | bioavailability [1] [%] | SMILES | Aβ deposits in brain tissues [2]
1 | 25 | O=C1NCC(c2ccc(-c3csc(C(F)(F)F)c3)c(F)c2F)N1c1ccc2[nH]cnc2c1 (centres unmarked) [Compound 28, 1-(1H-benzimidazol-5-yl)-5-{2,3-difluoro-4-[5-(trifluoromethyl)thiophen-3-yl]phenyl}-imidazolidin-2-one] | –
2 | – | O=C1NC(=O)N(c2ccc3[nH]cnc3c2)C1c1ccc(-c2nc(C(F)(F)F)cs2)cc1 (centres unmarked) [Compound 37, 1-(1H-benzimidazol-5-yl)-5-{4-[4-(trifluoromethyl)-1,3-thiazol-2-yl]phenyl}imidazolidine-2,4-dione] | depletion of Aβ deposits in brain tissues
